Reference: ChEMBL document CHEMBL1201862, “PubChem BioAssay data set” (2004)
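Step 1: Grow cells in 96-well plates. Step 2: Expose to compound for 48 hours at 5 concentrations. Step 3: Interpolate endpoints linearly; if unreached, use highest concentration. Here, GI50 denotes the concentration required for 50% inhibition of growth.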 Activity calls are given as the source filed them. Cut-off read from the data, not from the text of the source: active = GI50 up to about 1.1 µM and inactive = higher.

Experiments:
Experiment in all cases: NCI-60 cell line screen, 48 h
[1] = test system: HOP-62
[2] = test system: Malme-3M
[3] = test system: HCC 2998
[4] = test system: KM-20L2
[5] = test system: KM12
[6] = test system: COLO 205
[7] = test system: SK-MEL-28
[8] = test system: NCI/ADR-RES
[9] = test system: DMS-273
[10] = test system: SF-268
[11] = test system: MOLT-4
[12] = test system: HT-29
[13] = test system: RXF 393
[14] = test system: ACHN
[15] = test system: SNB-19
[16] = test system: SK-MEL-5
[17] = test system: HL-60
[18] = test system: BT-549
[19] = test system: M14
[20] = test system: A498
[21] = test system: SF-295
[22] = test system: EKVX
[23] = test system: LOX IMVI
[24] = test system: 786-0
[25] = test system: NCI-H460
[26] = test system: Hs-578T
[27] = test system: HCT-116
[28] = test system: NCI-H226
[29] = test system: HCT-15
[30] = test system: IGROV-1
[31] = test system: MDA-N
[32] = test system: RPMI-8226
[33] = test system: PC-3
[34] = test system: SK-OV-3
[35] = test system: OVCAR-5
[36] = test system: OVCAR-3
[37] = test system: MDA-MB-231
[38] = test system: DMS-114
[39] = test system: SF-539
[40] = test system: MCF7
[41] = test system: UACC-62
[42] = test system: DLD-1
[43] = test system: OVCAR-8
[44] = test system: OVCAR-4
[45] = test system: NCI-H23
[46] = test system: SNB-78
[47] = test system: DU-145
[48] = test system: SR
[49] = test system: T47D
[50] = test system: HOP-92
[51] = test system: K562
[52] = test system: UACC-257
[53] = test system: M19-MEL
[54] = test system: CCRF-CEM
[55] = test system: SNB-75
[56] = test system: LXFL 529
[57] = test system: TK-10
[58] = test system: SN12C
[59] = test system: NCI-H522
[60] = test system: HOP-18
[61] = test system: CAKI-1
[62] = test system: MDA-MB-435
[63] = test system: SK-MEL-2
[64] = test system: SW-620
[65] = test system: UO-31
[66] = test system: A549
[67] = test system: U-251

CCN(CC)C(=S)SC1CCOP(=O)(N(CCCl)CCCl)N1C (stereo not drawn)
GI50 [1]: > 95.1 µM (inactive) | GI50 [2]: 27.5 µM (inactive) | GI50 [3]: 33.4 µM (inactive) | GI50 [4]: 38.7 µM (inactive) | GI50 [5]: 7.19 µM (inactive) | GI50 [6]: 0.553 µM (active) | GI50 [7]: 26.9 µM (inactive) | GI50 [8]: > 100 µM (inactive) | GI50 [9]: 0.214 µM (active) | GI50 [10]: > 50.7 µM (inactive) | GI50 [11]: 0.439 µM (active) | GI50 [12]: 1.99 µM (inactive) | GI50 [13]: 29.9 µM (inactive) | GI50 [14]: 38.9 µM (inactive) | GI50 [15]: > 92.9 µM (inactive) | GI50 [16]: 2.96 µM (inactive) | GI50 [17]: 0.509 µM (active) | GI50 [18]: > 100 µM (inactive) | GI50 [19]: > 39.7 µM (inactive) | GI50 [20]: 44.9 µM (inactive) | GI50 [21]: 55.6 µM (inactive) | GI50 [22]: 57.1 µM (inactive) | GI50 [23]: 1.41 µM (inactive) | GI50 [24]: 41.2 µM (inactive) | GI50 [25]: 1.02 µM (active) | GI50 [26]: > 100 µM (inactive) | GI50 [27]: 0.412 µM (active) | GI50 [28]: 48.3 µM (inactive) | GI50 [29]: 28.2 µM | GI50 [30]: 4.34 µM (inactive) | GI50 [31]: > 100 µM (inactive) | GI50 [32]: 1.34 µM (inactive) | GI50 [33]: > 100 µM (inactive) | GI50 [34]: > 80.2 µM (inactive) | GI50 [35]: 12.1 µM (inactive) | GI50 [36]: > 100 µM (inactive) | GI50 [37]: > 100 µM (inactive) | GI50 [38]: 0.19 µM (active) | GI50 [39]: 33.4 µM (inactive) | GI50 [40]: 69.3 µM (inactive) | GI50 [41]: 1.83 µM (inactive) | GI50 [42]: 0.126 µM (active) | GI50 [43]: 29.9 µM (inactive) | GI50 [44]: 29.9 µM (inactive) | GI50 [45]: > 100 µM (inactive) | GI50 [46]: 49.2 µM (inactive) | GI50 [47]: > 100 µM (inactive) | GI50 [48]: 0.185 µM (active) | GI50 [49]: 61.7 µM (inactive) | GI50 [50]: 28.2 µM (inactive) | GI50 [51]: 0.399 µM (active) | GI50 [52]: > 40.9 µM (inactive) | GI50 [53]: 0.212 µM (active) | GI50 [54]: 0.109 µM (active) | GI50 [55]: > 55.1 µM (inactive) | GI50 [56]: 0.0372 µM (active) | GI50 [57]: > 71.1 µM (inactive) | GI50 [58]: 28.9 µM (inactive) | GI50 [59]: 0.43 µM (active) | GI50 [60]: > 100 µM (inactive) | GI50 [61]: 45.6 µM (inactive) | GI50 [62]: > 100 µM (inactive) | GI50 [63]: 20.5 µM (inactive) | GI50 [64]: 1.71 µM (inactive) | GI50 [65]: 67.8 µM (inactive)

O=C1OCC/C1=N/O
GI50 [2]: > 100 µM (inactive) | GI50 [3]: > 100 µM (inactive) | GI50 [4]: > 100 µM (inactive) | GI50 [5]: > 100 µM (inactive) | GI50 [6]: > 100 µM (inactive) | GI50 [7]: > 100 µM (inactive) | GI50 [9]: > 100 µM (inactive) | GI50 [10]: > 100 µM (inactive) | GI50 [11]: > 100 µM (inactive) | GI50 [12]: > 100 µM (inactive) | GI50 [13]: > 100 µM (inactive) | GI50 [14]: > 100 µM (inactive) | GI50 [16]: > 100 µM (inactive) | GI50 [17]: > 100 µM (inactive) | GI50 [19]: > 100 µM (inactive) | GI50 [20]: > 100 µM (inactive) | GI50 [21]: > 100 µM (inactive) | GI50 [22]: > 100 µM (inactive) | GI50 [24]: > 100 µM (inactive) | GI50 [25]: > 100 µM (inactive) | GI50 [27]: > 100 µM (inactive) | GI50 [28]: > 100 µM (inactive) | GI50 [29]: > 100 µM | GI50 [30]: > 100 µM (inactive) | GI50 [32]: > 100 µM (inactive) | GI50 [66]: > 100 µM (inactive) | GI50 [34]: > 100 µM (inactive) | GI50 [35]: > 100 µM (inactive) | GI50 [36]: > 100 µM (inactive) | GI50 [38]: > 100 µM (inactive) | GI50 [39]: > 100 µM (inactive) | GI50 [41]: > 100 µM (inactive) | GI50 [42]: > 100 µM (inactive) | GI50 [43]: > 100 µM (inactive) | GI50 [44]: > 100 µM (inactive) | GI50 [45]: > 100 µM (inactive) | GI50 [46]: > 100 µM (inactive) | GI50 [48]: > 100 µM (inactive) | GI50 [50]: > 100 µM (inactive) | GI50 [51]: > 100 µM (inactive) | GI50 [52]: > 100 µM (inactive) | GI50 [53]: > 100 µM (inactive) | GI50 [54]: > 100 µM (inactive) | GI50 [55]: > 100 µM (inactive) | GI50 [56]: > 100 µM (inactive) | GI50 [57]: > 100 µM (inactive) | GI50 [67]: > 100 µM (inactive) | GI50 [58]: > 100 µM (inactive) | GI50 [59]: > 100 µM (inactive) | GI50 [60]: > 100 µM (inactive) | GI50 [63]: > 100 µM (inactive) | GI50 [64]: > 100 µM (inactive) | GI50 [65]: > 100 µM (inactive)
